Usually solubility stands for how much of the substance goes into solution per volume. The AUC is concentration integrated over time.

Converted amounts (≈) assume the structure as drawn. Counter-ions that a name gives are not always drawn. Like-named read-outs stand apart in the source and are kept apart here.

Series [1] is described as follows: Oral exposure of dasatinib and gastric pH in dogs with famotidine, pentagastrin or betaine HCl pretreatment. It counts as in vivo, beagle dogs. On the procedure: Dogs were treated with dasatinib 50 mg tablet (Example 5). Dogs in each group received the following pretreatment: Group 1: no pretreatment (control); Group 2: famotidine 40 mg tablet orally, 3 hours prior to dasatinib; Group 3: pentagastrin by intramuscular injection (6 mg/kg) 30 min before dasatinib administration; Groups 4 and 5: Two betaine HCl 750 mg tablets were administered to the two groups as follows: one betaine HCl tablet orally 5 min before dasatinib and the other 20 min before dasatinib Group 5 was also treated with famotidine 40 mg tablet orally, 3 hours prior to dasatinib. […] Betaine HCl performs as well as pentagastrin, and improves dasatinib/famotidine exposure (AUC, FIG. 5C).
Dasatinib pharmacokinetics was evaluated in dogs with famotidine-induced hypochlorhydria (FIG. 5A). Dasatinib was administered as a 50 mg SPRYCEL® (Bristol-Myers Squibb) tablet. Famotidine 40 mg tablets were administered 3 hrs before dasatinib. Pentagastrin injection was administered intramuscularly 30 min prior before dasatinib administration. Two betaine HCl 750 mg tablets administered at the following times: 1 orally 20 min and 5 min prior to dasatinib administration.
Five groups of naïve, male beagle dogs (n=4 per group) each received a different pretreatment prior to dasatinib treatment.
(§1) Group 1: no pretreatment (control)
Group 2: famotidine 40 mg tablet orally, 3 hours prior to dasatinib
Group 3: pentagastrin by intramuscular injection (6 mg/kg) 30 min before dasatinib administration
Groups 4 and 5: Two betaine HCl 750 mg tablets were administered to the two groups as follows: one betaine HCl tablet orally 5 min before dasatinib and the other 20 min before dasatinib
Group 5: famotidine 40 mg tablet orally, 3 hours prior to dasatinib.

The test system of the next series is gastric pH. Nature of the series: Gastric pH (Heidelberg capsule) after betaine HCl in healthy volunteers with rabeprazole-induced hypochlorhydria. In kind it is in vivo. As to the method: The pH of the stomach was measured over time with a Heidelberg capsule with tether swallowed at t=0. […] Onset of effect of betaine HCl was rapid, with a mean time to pH<3 of 6.3 (±4.3) min, and its duration was adequate but temporary, with a gastric pH<3 and <4 lasting 72.5 (±32.9) and 76.8 (±30.4) min, respectively.
Dasatinib pharmacokinetics was evaluated in healthy volunteer subjects with rabeprazole-induced hypochlorhydria by dosing 20 mg oral rabeprazole twice daily for 4 days. On the morning (a.m.) of study day 5, subjects received an additional 20 mg oral rabeprazole, and the Heidelberg Capsule pH diagnostic system (HC) was used for continuous gastric pH monitoring. When gastric pH remained >4 for at least 15 min, a 1500 mg dose of betaine HCl was given orally, and gastric pH was monitored for 2 h. During part 2 of this study a 3-period crossover study, five of ten subjects each received: (A) 100 mg dasatinib (Control); (B) 100 mg dasatinib after rabeprazole pre-treatment; (C) 100 mg dasatinib, 1500 mg betaine HCl, after rabeprazole pre-treatment. For treatments B+C, 20 mg rabeprazole twice daily was given for 3 days prior to and on the a.m. of each study day. Gastric pH was monitored and DAS plasma concentrations were measured over 22 h (see study schematic below) with dasatinib concentration versus time results shown in FIG. 8A and exposure (AUC) in FIG. 8B.

The conditions of series [2]: media with enough betaine HCl to lower the pH to 2.4 or below.
Series [3] in a line: pH solubility profile of GDC-0941 (shake flask method). It counts as physicochemical. The conditions noted are these: 50 mM USP buffer, aqueous buffer, thermodynamic from solid, 48 hours at 37° C. As to the method:
The solubility test was conducted using the shake flask method. […] Each sample was prepared at a volume of approximately 2 mL, with excess solid in each sample. […] Samples were then filtered and concentrations were determined by HPLC under reversed-phase conditions using a C18 column, and elution with a phosphate buffer (pH 6.5), acetonitrile gradient. The injection volume was 5 μL, with a flow rate of 1.2 mL/min and detection at 230 nm.

Series [4] can be described thus: Oral exposure of GDC-0941 in dogs with famotidine, pentagastrin or betaine HCl pretreatment. It counts as in vivo. The conditions noted are these: male, beagle, dog, plasma, 40 mg, 40 mg oral. On the procedure:
Group 2 dogs were pretreated with famotidine 40 mg tablet to induce hypochlorhydria and as a negative control. Group 3 dogs were pretreated with pentagastrin by intramuscular injection 6 mg/kg. Pentagastrin is a synthetic peptide which stimulates the secretion of […], pepsin, and intrinsic factor, and lowers the pH of the gut through physiologic stimulation of acid secretion. […] Group 5 dogs were pretreated with famotidine, then treated with betaine HCl, 2×750 mg tablets.
as §1

Series [5] in a line: Effect of rabeprazole on pharmacokinetics of GDC-0941 in patients with advanced solid tumors. As to conditions: cancer patients pretreated with rabeprazole 20 mg Days 4-8, Day 8 vs Day 1. In kind it is in vivo.
The conditions of series [6]: 100 mg dasatinib after 40 mg omeprazole daily for 4 days; cited from earlier work.
The conditions of series [7]: cited from earlier work.
The conditions of series [8]: cited from earlier work. This is another data set of the same source.
For series [9] the following is noted: cited from earlier work. This is another data set of the same source.
For series [10] the following is noted: cited from earlier work. The source holds these as a separate data set.
The mark [11] stands for this setting: single 50-mg dose 10 hours following 40 mg of famotidine.

With `NC(N)=Nc1nc(CSCCC(N)=NS(N)(=O)=O)cs1` [famotidine], the “effect on gastric pH” value in [1] (dogs pretreated with famotidine 40 mg) is recorded as “significant hypochlorhydria (increased gastric pH)”.
With `C[N+](C)(C)CC(=O)O` [betaine HCl, Betaine hydrochloride], the “lowering of gastric pH” value with gastric pH (30 min interval after dosing 1500 mg, N=6) was 4.54 (±0.46) units. Besides, in the series on gastric pH (after 1500 mg betaine HCl), the “duration of gastric pH<3” value is given as 72.5 (±32.9) min, the “duration of gastric pH<4” value is 76.8 (±30.4) min and the “mean time to pH<3” value was 6.3 (±4.3) min. The “effect on gastric pH” value in series [1] (dogs treated with famotidine+betaine HCl) was “reversal of hypochlorhydria”.
With `CS(=O)(=O)N1CCN(Cc2cc3nc(-c4cccc5[nH]ncc45)nc(N4CCOCC4)c3s2)CC1` [GDC-0941, 4-(2-(1H-indazol-4-yl)-6-((4-(methylsulfonyl)piperazin-1-yl)methyl)thieno[3,2-d]pyrimidin-4-yl)morpholine], in [2], the “drug rapidly dissolved and maintained in solution” value is “greater than 90%”. In addition, the solubility at 48 h in series [3] (all tested pH values above pH 4.4, read-out: measured solubility) was roughly 1 µg/mL (≈ 1.95 µM); in series [3] (pH 1.0, read-out: solubility) it was roughly 800 µg/mL (≈ 1560 µM); in series [3] (pH 3.0, read-out: solubility), roughly 8 µg/mL (≈ 15.6 µM); in series [3] (pH 7.5, read-out: solubility), less than 1 µg/mL. For the same molecule, the AUC in [4] (Group 4 (betaine HCl only pretreatment)) amounted to 7.38 µM·h; in [4] (Group 5 (famotidine+betaine HCl), excluding animal D501 (n=3)), 7.12 µM·h. For the same molecule, in series [5], the “decrease of GDC-0941 (AUC, FIG. 7)” value amounted to 40%.
For the molecule `Cc1nc(Nc2ncc(C(=O)Nc3c(C)cccc3Cl)s2)cc(N2CCN(CCO)CC2)n1` [dasatinib, Dasatinib], in series [6], the “decrease of AUCinf” value is 43%, the “decrease of Cmax” value is 42% and the reduction of bioavailability is given as roughly 40%. Also, in series [7] (Maalox 30 mL administered 2 hours prior to dasatinib), the exposure entry is given as “unchanged”. In [7] (dasatinib 50 mg BID, famotidine 40 mg 10 hours prior), the “reduction of bioavailability (AUC)” value is 61%. In [7] (setting [11]), the “reduction of AUC0-12” value is reported as roughly 60% and the “reduction of Cmax” value is roughly 60%. Further, in [8] (high fat meal), the “increase in AUCinf” value is 14%. For the same molecule, the “increase in AUCinf” value in [8] (low fat meal) is recorded as 21%. Besides, the solubility in [9] (pH 2.6, 24° C.) was roughly 18000 µg/mL (≈ 36900 µM). Further, the solubility in [9] (pH 4.0, 24° C.) is roughly 690 µg/mL (≈ 1410 µM). Further, the solubility in [9] (pH 4.28, 24° C.) is 205 µg/mL (≈ 420 µM). Moreover, the solubility in series [9] (pH 7.0, 24° C.) is less than 1 µg/mL. The “solubility of highest commercial dose strength (140 mg) in 250 mL of water” value in [9] (pH range of 4.3 to 7.0 at 24° C.) is recorded as “not soluble”. In [10] (in vivo), the “between-subject variability in Ka” value is recorded as “exceeded 100%”, the “between-subject variability in relative bioavailability (FR)” value is 33% and the “inter-occasion variability (IOV) within a subject in FR” value is 44%. Moreover, the “decrease of FR with use of PPI” value in [10] (not statistically significant) is on record as 17%. Also, the dasatinib levels entry in [1] (dogs, dasatinib+famotidine without betaine HCl, 50 mg tablet) is listed as “at or below the limits of assay detection”.

The values are drawn from US20130096116A1, “TREATMENT OF PHARMACOLOGICAL-INDUCED HYPOCHLORHYDRIA” (Genentech, Inc., priority 2011, published 2013).
